Values of other authors as cited in patent US20250367137A1, “Phloroglucinol Formulations And Methods Of Use” (priority 2022, published 2025).

Tested on: irritable bowel syndrome (IBS) sufferers
Settings: placebo-controlled trials

Oc1cc(O)cc(O)c1 [phloroglucinol]
improvement in pain and stool frequency: statistically significant improvement
